Measured values as given in publication PMC11012799 (Molecules, 2024).
Converted amounts (≈) assume the structure as drawn.

How the values were obtained:
[1] = system: Klebsiella pneumoniae ATCC 13883; assay: MIC, two-fold microdilution (EUCAST), K. pneumoniae reference strain; format: cell-based; conditions: Klebsiella pneumoniae, ATCC13883, 18 h, read-out: MIC (µM) Klebsiella pneumoniae ATCC 13883
Excerpt: (§1) A panel of reference bacteria, including Escherichia coli NCTC 8196, Staphylococcus aureus ATCC 6538, Klebsiella pneumoniae ATCC 13883, and Pseudomonas aeruginosa NCTC 6749, was used to assess the antibacterial activity of the nine tested aziridine phosphines (1–4) and aziridine phosphine oxides (5–9). The two-fold microdilution method, following EUCAST guidelines, was used to determine a minimal inhibitory concentration (MIC) of each compound, as presented in Table S1.
(§2) Antibacterial activity: The in vitro antibacterial activity of nine tested aziridine phosphines (1–4) and aziridine phosphine oxides (5–9) was evaluated against reference bacterial strains (E. coli NCTC 8196, S. aureus ATCC 6538, K. pneumoniae ATCC 13883, P. aeruginosa NCTC 6749) and 12 S. aureus clinical isolates, including two methicillin-resistant isolates (MRSA, D15 and D17) obtained from infected patients hospitalized at the Oncological Hospital in Lodz (Poland). All strains were kept frozen at −80 °C in Tryptic Soy Broth with 15% glycerol. The minimal inhibitory concentration (MIC) is defined as the lowest concentration of the compound that prevents visible growth of bacteria using the microdilution method followed the EUCAST guidelines. Each compound was added to 96-well microplates in two-fold dilutions at concentrations from 3.125 to 100 μM in Mueller–Hinton broth. […] Bacterial culture was added into wells at a density of 5 × 10^5 CFU mL^−1, and plates were incubated at 37 °C for 18 h. As a positive control, an untreated bacterial culture was used, and a clear culture medium served as a negative control. The optical density at OD600 was measured using the SpectraMax i3 Multi-Mode Platform (Molecular Devices, San Jose, CA, USA). Ciprofloxacin hydrochloride (CIP, Sigma-Aldrich, Darmstadt, Germany) was used as a reference antimicrobial drug.

L929 cells = assay: cells; format: cell-based, murine; conditions: Mus musculus, L929, 24 h, read-out: IC50 (µM) L929
Protocol: (§3) Considering our previous research and the literature reports on the antitumor activity of aziridine derivatives, aziridine phosphines (1–4) and aziridine phosphine oxides (5–9) were tested to investigate their potential anticancer activity. The in vitro effects on cell viability were assessed using the 3-(4,5-dimethylthiazol-2-yl)-2,5-diphenyltetrazolium bromide (MTT) assay on non-tumorigenic murine fibroblasts (L929) as well as two cancer cell lines: human cervical epithelioid carcinoma (HeLa) cells and endometrial adenocarcinoma (Ishikawa) cells.
(§4) Cell viability inhibition: The in vitro effects on cell viability were determined using the 3-(4,5-dimethylthiazol-2-yl)-2,5-diphenyltetrazolium bromide (MTT) assay on non-tumorigenic murine fibroblasts L929 (ATTC®—CCL-1) as well as two cancer cell lines: human cervical epithelioid carcinoma HeLa cells (ATTC®—CCL-2™) and endometrial adenocarcinoma Ishikawa cells (ECACC 99040201). Cells were cultured on 96-well microplates at a density of 1 × 10^4 cells/well following the international in Dulbecco’s Modified Eagle’s Medium (DMEM, Biowest) supplemented with 10% fetal bovine serum (FBS, Biowest, Nuaillé, France), 100 U/mL of penicillin, and 100 μg/mL of streptomycin (Biowest, Nuaillé, France). After overnight incubation at 37 °C and 5% CO2, the growth medium was removed and 100 μL of fresh media with two-fold dilutions of the tested compounds at concentrations of 3.125–100 μM were added. […] Untreated cells in medium were used as a positive control, while a clear culture medium served as a negative control.

[2] = system: clinical S. aureus strains; assay: MIC, microdilution, 12 clinical S. aureus strains; format: cell-based, Staphylococcus aureus; conditions: panel of 12 clinical isolates (naso-pharynx, ulcers/furuncles, bones), highest tested concentration 100 µM
Excerpt: as §1, §2

HeLa cells = assay: cells; format: cell-based, human; conditions: for IC50: Homo sapiens, 24 h, read-out: IC50 (µM) HeLa; for selectivity index (SI) HeLa: efficacy against HeLa versus normal fibroblasts L929, SI > 1.0 = greater efficacy against cancer cells
Protocol: as §3, §4

Ishikawa cells = assay: cells; format: cell-based, human; conditions: for IC50: Homo sapiens, Ishikawa, 24 h, read-out: IC50 (µM) Ishikawa; for selectivity index (SI) Ishikawa: efficacy against Ishikawa versus normal fibroblasts L929, SI > 1.0 = greater efficacy against cancer cells
Protocol: as §3, §4

[3] = system: Staphylococcus aureus ATCC 6538; assay: MIC, two-fold microdilution (EUCAST), S. aureus reference strain; format: cell-based; conditions: Staphylococcus aureus, ATCC6538, 18 h, read-out: MIC (µM) Staphylococcus aureus ATCC 6538
Excerpt: as §1, §2

[4] = system: Pseudomonas aeruginosa NCTC 6749; assay: MIC, two-fold microdilution (EUCAST), P. aeruginosa reference strain; format: cell-based; conditions: Pseudomonas aeruginosa, NCTC6749, 18 h, read-out: MIC (µM) Pseudomonas aeruginosa NCTC 6749
Excerpt: as §1, §2

Structure (SMILES)	MIC [1] [µM]	IC50 (L929 cells) [µM]	MIC ([2]; Staphylococcus aureus) [µM]	MIC [2] [µM]	IC50 (HeLa cells) [µM]	selectivity index (SI) HeLa (HeLa cells)	IC50 (Ishikawa cells) [µM]	selectivity index (SI) Ishikawa (Ishikawa cells)	MIC [3] [µM]	MIC [4] [µM]
CC(C)[C@@H]1CN1c1ccccc1P(=O)(c1ccccc1)c1ccccc1 [Compound 5]	> 100	10.6 ± 3.2	100 (≈ 36.1 µg/mL)	100 (≈ 36.1 µg/mL)	6.4 ± 2.1	1.7	4.6 ± 2.3	2.3	50 (≈ 18.1 µg/mL)	> 100
CC(C)C[C@H]1CN1c1ccccc1P(=O)(c1ccccc1)c1ccccc1 [Compound 7]	> 100	17.5 ± 2.1	100 (≈ 37.5 µg/mL)	100 (≈ 37.5 µg/mL)	7.1 ± 2.6	2.5	10.5 ± 3.1	1.7	50 (≈ 18.8 µg/mL)	> 100
